The subject of one series is rats. Kind of series: Diuretic and saluretic activity (urine volume and electrolyte excretion over 6 h), technique of Lipschits et al. The settings on record: rat; for response vs control in vivo at 25 mg/kg: 25 mg/kg po; for response vs control in vivo at 10 mg/kg: 10 mg/kg po; for response vs control in vivo at 40 mg/kg: 40 mg/kg po; for response vs control in vivo at 20 mg/kg: 20 mg/kg po. Type of series: in vivo. The protocol: The synthesized compounds were, therefore, subjected a pharmacological screening to evaluate a possible diuretic and salt excreting activity. Thus, an acute dose of each of the products of synthesis (20 or 25 mg/kg) was administered to rats and the amount of urine and the excretion of electrolytes was measured, following the technique described by Lipschits et al., with certain modifications (J. Pharmacol. Exp.Ther. 1943-79; 97-110).
The volume (ml/kg/6 h), the pH and the excretion of sodium, potassium and chloride ions (mEq/kg/6 h) were determined on the urine quantitatively collected over 6 hours, using triamterene and hydrochlorothiazide as reference diuretics.

Series [1] in a line: Mortality rate in the mouse after a single oral dose of 1600 mg/kg. Particulars: in vivo, single oral dose 1600 mg/kg. The protocol: Likewise, to complete the superficial pharmacological profile, a check was made of the mortality rate in the mouse after oral administration of a single dose of 1600 mg/kg of each of the synthesized compounds (See Table 1).
Series [2] has as its system isolated guinea pig trachea. Nature of the series: In vitro trachea relaxing activity (spontaneous tone in isolated trachea, method of Luduena). Type of series: cell-based. The settings on record: Cavia porcellus, relative to maximum relaxation by noradrenaline 0.3 mcg/ml; for activity at 30 µg/mL: 30 mcg/ml. The protocol:
The platelet antiaggregation activity was determined in vitro using platelet rich rabbit plasma and arachidonic acid (50 mcg/ml) as aggregation inducing agent. The results are given for tracheal relaxation as percentage inhibition of the tracheal tone relative to the maximum relaxation induced by noradrenaline (0.3 mcg/ml) and for the platelet aggregation as a percentage of the maximum effect observed with the proaggregation agent.

Where [3] appears, read: (N) = not statistically significant vs control, read-out: Cl excretion, treated group/control group ratio.
Where [4] appears, read: (N) = not statistically significant vs control, read-out: K excretion, treated group/control group ratio.
Where [5] appears, read: (N) = not statistically significant vs control, read-out: Na excretion, treated group/control group ratio.
Setting [6] is: (N) = not statistically significant vs control, read-out: Volume urine, treated group/control group ratio.
Setting [7] is: read-out: Cl excretion, treated group/control group ratio.
[8] abbreviates: read-out: K excretion, treated group/control group ratio.
Where [9] appears, read: read-out: Na excretion, treated group/control group ratio.
The mark [10] stands for this setting: read-out: Volume urine, treated group/control group ratio.
The mark [11] stands for this setting: (N) = not statistically significant vs control, read-out: Na/K.

Read-outs that look alike come from different tables or passages of the source.

For the compound `Cc1nc2c(nc1C)N(CCN1CCOCC1)S(=O)(=O)N=C2N` [1-(2-morpholinoethyl)-6,7-dimethyl, 4-amino-1-(2-morpholinoethyl)-6,7-dimethylpyrazino[2,3-c]-1,2,6-thiadiazine 2,2-dioxide], the response vs control in vivo at 25 mg/kg is 102% with rats (setting [3]); 112% in the series with rats (setting [4]); 246% in the series on rats (setting [5]); 108% in the series with rats (setting [6]); 220% in the series on rats (read-out: Na/K). The compound also showed a mortality in series [1] of 85%.

As for `NS(=O)(=O)c1cc2c(cc1Cl)NCNS2(=O)=O` [Hydrochlorothiazide, reference compound], the response vs control in vivo at 10 mg/kg with rats (setting [7]) amounted to 577%; in the series with rats (setting [8]), 217%; in the series with rats (setting [9]), 668%; with rats (read-out: Na/K), 308%; in the series with rats (setting [10]), 166%. Also, the response vs control in vivo at 40 mg/kg in the series with rats (setting [7]) is 626%; with rats (setting [8]) it was 265%; in the series with rats (setting [9]) it was 773%; in the series with rats (read-out: Na/K), 292%; in the series with rats (setting [10]) it was 179%.

For the compound `Cc1nc2c(nc1C)N(CCN(C(C)C)C(C)C)S(=O)(=O)N=C2N` [4-amino-1-[2-(N,N-diisopropylamino)ethyl]-6,7-dimethylpyrazino[2,3-c]-1,2,6-thiadiazine 2,2-dioxide], the response vs control in vivo at 25 mg/kg was 156% in the series on rats (setting [3]); 94% with rats (setting [4]); 193% with rats (setting [5]); 84% in the series on rats (setting [6]); 205% with rats (read-out: Na/K). Moreover, the mortality in series [1] was 62%.

With `CCOC(=O)CN1c2nc(-c3ccccc3)cnc2C(N)=NS1(=O)=O` [1-[(2-ethoxycarbonyl)-methyl]-7-phenyl, 4-amino-1-[(ethoxycarbonyl)methyl]-7-phenylpyrazino[2,3-c]-1,2,7-thiadiazine 2,2-dioxide], the activity at 30 µg/mL in series [2] is 72%.

Turning to `CCN1c2nc(C(F)(F)F)c(C(F)(F)F)nc2C(N)=NS1(=O)=O` [1-ethyl-6,7-bis(trifluoromethyl), 4-amino-1-ethyl-6,7-bis(trifluoromethyl)pyrazino[2,3-c]-1,2,6-thiadiazine 2,2-dioxide], the response vs control in vivo at 25 mg/kg in the series on rats (setting [3]) came to 112%; in the series on rats (setting [4]) it was 99%; in the series with rats (setting [5]), 129%; in the series on rats (setting [6]), 128%; in the series on rats (read-out: Na/K), 130%. In series [1], this compound had a mortality of 100%.

Regarding `CCc1nc2c(nc1C)C(NC)=NS(=O)(=O)N2CC` [1,7-diethyl-4-(methylamino)-6-methyl, 1,7-diethyl-4-(methylamino)-6-methylpyrazino[2,3-c]-1,2,6-thiadiazine 2,2-dioxide], the response vs control in vivo at 20 mg/kg in the series on rats (setting [3]) amounted to 424%; in the series with rats (setting [4]), 155%; in the series on rats (setting [5]), 344%; in the series with rats (setting [11]), 156%; in the series with rats (setting [6]), 139%. The same compound returned an activity at 30 µg/mL in series [2] of 75%.

Regarding `CCc1nc2c(nc1CC)N(CC)S(=O)(=O)N=C2N` [1,6,7-triethyl, 4-amino-1,6,7-triethylpyrazino[2,3-c]-1,2,6-thiadiazine 2,2-dioxide], the response vs control in vivo at 20 mg/kg turned out to be 216% in the series on rats (setting [3]); 127% in the series on rats (setting [4]); 198% with rats (setting [5]); 156% in the series with rats (setting [11]); 133% with rats (setting [6]). The same compound had a mortality in series [1] of 50%.

Turning to `CCc1nc2c(nc1C)C(N)=NS(=O)(=O)N2CC` [1,7-diethyl-6-methyl, 4-amino-1,7-diethyl-6-methylpyrazino[2,3-c]-1,2,6-thiadiazine 2,2-dioxide], the response vs control in vivo at 25 mg/kg in the series on rats (setting [3]) was found to be 787%; with rats (setting [4]) it was 179%; in the series on rats (setting [5]), 823%; with rats (setting [6]) it was 197%; in the series on rats (read-out: Na/K), 460%. Moreover, the mortality in series [1] is 37.5%.

Compound `CCc1nc2c(nc1C)C(NN)=NS(=O)(=O)N2CC` showed an activity at 30 µg/mL in series [2] of 72%.

In the case of `CCCN1c2nc(C)c(C)nc2C(N)=NS1(=O)=O` [6,7-dimethyl-1-propyl, 4-amino-6,7-dimethyl-1-propylpyrazino[2,3-c]-1,2,6-thiadiazine 2,2-dioxide], the response vs control in vivo at 20 mg/kg in the series on rats (setting [3]) amounted to 593%; with rats (setting [4]), 197%; in the series with rats (setting [5]) it was 609%; in the series with rats (setting [11]) it was 309%; with rats (setting [6]), 175%. Moreover, the mortality in series [1] is 60%.

Compound `CCN1c2nc(C)c(Br)nc2C(N)=NS1(=O)=O` [6-bromo-1-ethyl-7-methyl, 4-amino-6-bromo-1-ethyl-7-methylpyrazino[2,3-c]-1,2,6-thiadiazine 2,2-dioxide] registered an activity at 30 µg/mL in series [2] of 88%.

Consider `CCCc1nc2c(nc1C)C(N)=NS(=O)(=O)N2CC` [1-ethyl-6-methyl-7-propyl, 4-amino-1-ethyl-6-methyl-7-propylpyrazino[2,3-c]-1,2,6-thiadiazine 2,2-dioxide], for which the response vs control in vivo at 20 mg/kg with rats (setting [3]) came out at 176%; in the series with rats (setting [4]), 123%; in the series on rats (setting [5]) it was 156%; in the series with rats (setting [11]) it was 127%; with rats (setting [6]) it was 109%. The mortality in series [1] came to 50%.

`CCN1c2nc(-c3ccccc3)cnc2C(N)=NS1(=O)=O` [1-ethyl-7-phenyl, 4-amino-1-ethyl-7-phenylpyrazino[2,3-c]-1,2,6-thiadiazine 2,2-dioxide]: the response vs control in vivo at 20 mg/kg with rats (setting [3]) stood at 136%; in the series on rats (setting [4]) it was 140%; in the series with rats (setting [5]), 131%; in the series with rats (setting [11]), 94%; in the series on rats (setting [6]), 121%. In series [2], this compound came in with an activity at 30 µg/mL of 95%.

`Nc1cc(-c2ccncc2)c[nH]c1=O` [Amrinone, reference compound] yielded an activity at 3 µg/mL in series [2] (3 mcg/ml) of 65%.

For the compound `Nc1nc(N)c2nc(-c3ccccc3)c(N)nc2n1` [Triamterene, reference compound], the response vs control in vivo at 20 mg/kg in the series with rats (setting [3]) is 237%; in the series with rats (setting [4]), 34%; with rats (setting [5]) it was 579%; with rats (setting [6]), 145%. The response vs control in vivo at 25 mg/kg with rats (setting [3]) is 260%; with rats (setting [4]), 36%; in the series on rats (setting [5]), 596%; in the series with rats (setting [6]) it was 165%.

Consider `Cc1nc2c(nc1C)N(CCO)S(=O)(=O)N=C2N` [1-(2-hydroxyethyl)-6,7-dimethyl, 4-amino-1-(2-hydroxyethyl)-6,7-dimethylpyrazino[2,3-c]-1,2,6-thiadiazine 2,2-dioxide], for which the response vs control in vivo at 25 mg/kg turned out to be 141% with rats (setting [3]); 189% in the series on rats (setting [4]); 203% with rats (setting [5]); 106% in the series on rats (setting [6]); 107% with rats (read-out: Na/K). The mortality in series [1] amounted to 0%.

`CCc1nc2c(nc1C)N(CC)S(=O)(=O)N=C2N` [1,6-diethyl-7-methyl, 4-amino-1,6-diethyl-7-methylpyrazino[2,3-c]-1,2,6-thiadiazine 2,2-dioxide]: the response vs control in vivo at 20 mg/kg with rats (setting [3]) came out at 89%; in the series with rats (setting [4]), 91%; in the series on rats (setting [5]), 56%; in the series with rats (setting [11]), 62%; in the series with rats (setting [6]), 104%. Moreover, the activity at 30 µg/mL in series [2] is 95%.

In general, mortality refers to the percentage killed. A lower mortality goes with more survivors.

Values taken from patent publication US5580869A, “1N substituted pyrazino[2,3-c]-1,2,6-thiadiazine 2,2-dioxides” (Prodesfarma, S.A., priority 1992, dated 1996).
